Read-outs that look alike come from different tables or passages of the source.
Test system: central 5HT
Assay: inhibition of behavioural symptoms (forepaw tapping, head jerks, splayed limbs) induced by 5-methoxy-N,N-dimethyltryptamine in mice
Format: in vivo, mice (male CD-1 Charles Rine)
Details: 1 h pretreatment, 10 mg/kg ip 5-methoxy-N,N-dimethyltryptamine; for ED50: Mus musculus, 1 h, read-out: ED50 (dose of compound inhibiting the symptoms by 50%)
Procedure: Mice (.male. CD^-1 Charles Rine) are pretreated with the compounds 10 animals/group under investigation and 1 h later one group is injected with 10 mg/kg ip 5-methoxy-N,N-dimethyltryptamine (Sigma). The symptoms of forepaw tapping movements, head jerks and splayed limbs are scored: 1, present; 0, absent, giving a maximum score of 3/mouse or 30/group. Results are expressed as the percentage inhibition compared to the group treated with 5-methoxy-N,N-dimethyl tryptamine alone. The dose of compound inhibiting the symptoms by 50% is determined graphically.

Row | Compound | ED50 (po, p.o.) [mg/kg] | other results
1 | CN1CC2CC(O)c3cccc4c3N2C(C1)c1ccccc1C4 (single isomer, unassigned) [Compound 3, 1,2,3,3a,4,5,9,13b-Octahydro-2-methyl-2-benzazepino[4,3,2-ij]pyrazino[1,2-a]quinolin-5-ol] | 0.65 | –
2 | CN1CC2CC(O)c3cccc4c3N2C(C1)c1ccccc1C4 (single isomer, unassigned) [Compound 4, 1,2,3,3a,4,5,9,13b-Octahydro-2-methyl-2-benzazepino[4,3,2-ij]pyrazino[1,2-a]quinolin-5-ol] | – | ED50 (ip, i.p.): 0.3 mg/kg
3 | CN1CC2CC(=O)c3cccc4c3N2C(C1)c1ccccc1C4 (stereo not shown) [Compound 1, 1,2,3,3a,4,5,9,13b-Octahydro-2-methyl-2-benzazepino[4,3,2-ij]pyrazino[1,2-a]quinolin-5-one] | 12 | –
4 | CN1CC2CCc3cccc4c3N2C(C1)c1ccccc1C4 (stereo not shown) [Compound 6, 1,2,3,3a,4,5,9,13b Octahydro-2-methyl-2-benzazepino[4,3,2-ij]pyrazino[1,2-a]quinoline] | 10 | –
5 | CN1CC2CCc3cccc4c3N2C(C1)c1ccccc1C4 (stereo not shown) [Compound 7, 1,2,3,3a,4,5,9,13b-octahydro-2-methyl-2-benzazepino[4,3,2-ij]pyrazino[1,2-a]quinoline] | – | ED50 (dose of compound inhibiting the symptoms by 50%) (p.o., 60 min): 13 mg/kg
6 | CN1CC2CC(=NO)c3cccc4c3N2C(C1)c1ccccc1C4 (stereo not shown) [Compound 8, 1,2,3,3a,4,5,9,13b-octahydro-2-methyl-2-benzazepino[4,3,2-ij]-pyrazino[1,2-a]-5-oxaminoquinoline] | 3 | –
7 | CN1CC2CC(=O)c3cccc4c3N2C(C1)c1ccccc1O4 (stereo not shown) [Compound 16, 2-methyl,1,3,4,14b-tetrahydro 4,6-ethano-2H-dibenzo[bf]pyrazino[1,2-d][1,4]oxazepin-15-one] | 10 | –

Source: US4442098A, “Pentacyclic derivatives of piperazine” (Beecham Group Limited, priority 1980, dated 1984)
